According to patent publication US20220395472A1 (Dermavant Sciences GmbH, priority 2021, published 2022):

Test system: adults with plaque psoriasis
Assay: Long-term extension study (PSOARING 3): % BSA affected
Format: in vivo, human
Experimental: The % BSA affected is an estimate of the percentage of total involved skin with psoriasis. For the purpose of clinical estimation, the total palmar surface of the subject's palm and digits was assumed to be approximately equivalent to 1% BSA. The % BSA affected by psoriasis was evaluated (from 0% to 100%). Details on calculation of approximate % BSA involvement in each subject (total and individual) can be found in Appendix 2 of the protocol. Percent BSA is a static assessment made without reference to previous scores.
At Screening, Baseline, and for all efficacy assessments, lesions on the subject's scalp, palms, fingernails, toenails, and soles were not included in the calculation of % BSA affected as these areas were excluded from the efficacy analyses.

CC(C)c1c(O)cc(/C=C/c2ccccc2)cc1O [Tapinarof, 3,5-Dihydroxy-4-isopropyl-trans-stilbene]
mean % BSA affected (Week 16, LOCF, Tapinarof (Pivotal) group): 2.54% | mean % BSA affected (Week 16, LOCF, Vehicle (Pivotal) group): 3.36% | mean % BSA affected (Week 16, OC, Tapinarof (Pivotal) group): 1.97% | mean % BSA affected (Week 16, OC, Vehicle (Pivotal) group): 2.89% | mean % BSA affected (Week 16 LOCF, Overall): 2.82% | mean % BSA affected (Week 16 OC, Overall): 2.28% | mean % BSA affected (Week 40, LOCF, Tapinarof (Pivotal) group): 2.44% | mean % BSA affected (Week 40, LOCF, Vehicle (Pivotal) group): 2.99% | mean % BSA affected (Week 40, OC, Tapinarof (Pivotal) group): 1.75% | mean % BSA affected (Week 40, OC, Vehicle (Pivotal) group): 2.07% | mean % BSA affected (Week 40 LOCF, Overall): 2.63% | mean % BSA affected (Week 40 OC, Overall): 1.85%
